Experimental data published in ChEMBL document CHEMBL1151902, “Discovery and SAR of cinnolines/quinolines as liver X receptor (LXR) agonists with binding selectivity for LXRbeta” (Bioorg Med Chem, 2009).
≈ marks a conversion by molar mass, not a printed value.

Assays:
[1] = Metabolic stability in mouse liver microsomes assessed as half life; assay type: ADME, Microsome
[2] = Aqueous solubility of the compound; assay type: physicochemical; details: buffer

## Cn1ccc2cccc(COc3cccc(-c4c(Cc5ccccc5)nnc5c(C(F)(F)F)cccc45)c3)c21
[1]
  half-life: < 5 min
[2]
  solubility: 2 µg/mL (≈ 3.82 µM)
